Laboratory results from US12708673B2, “Methods and compositions related to peptides and proteins with c-terminal elements” (Sanford Burnham Prebys Medical Discovery Institute, priority 2008, dated 2026).
Entries after “also recorded” stand apart in the source; their conditions may differ.

Legend:
cells = experiment: Cell internalization of iRGD compared with other RGD peptides; assay type: cell-based
pancreatic tumors = experiment: Tumor homing of intravenously injected fluorescamine-labeled iRGD peptide in PDAC mouse; assay type: in vivo; details: intravenous, 4.5 hrs circulation
Experimental: Approximately 200 μg of fluorescamine-labeled iRGD peptide was injected into a pancreatic ductal adenocarcinoma (PDAC) mouse through the tail vein, and was allowed to circulate for 4.5 hrs. The organs were harvested and observed under UV light (upper panel). […] T7 phage displaying iRGD peptides (main panel) or CG7C control peptides (right upper window) were incubated with PPC1 cells cultured on collagen-I coated cover slips for 2 hours at 37° C., stained with anti T7 antibody and a plasma membrane marker, and imaged by a confocal microscope.

NRP-1 = target: T1, NRP-1 (Homo sapiens, UniProt O14786); experiment: Affinity chromatography of PPC-1 tumor extract on immobilized RPARPAR peptide; assay type: binding; details: 130 kDa protein, MALDI-TOF
T1 construct: from tissue; host or cells: orthotopic PPC-1 prostate tumor xenografts grown in BALB/c nude mice, extracted with n-octyl-beta-D-glucopyranoside
Experimental: (§1) FIGS. 18A-18C show the identification and validation of NRP-1 as the CendR receptor. FIG. 18A: Affinity chromatography of proteins interacting with RPARPAR (SEQ ID NO: 2) peptide. PPC-1 tumor tissue was extracted with a 200 mM glucopyranoside buffer, and the extract was incubated with RPARPAR-coated (SEQ ID NO:2) beads, followed by extensive washes, and elution with 2 mM free RPARPAR (SEQ ID NO:2) peptide. Note appearance of a 130 kDa band, identified by mass spectroscopy as NRP-1, starting in the fraction 3 of the eluate. Upper panel—a silver stained gel, lower panel—an immunoblot with anti-NRP-1 antibody. FIG. 18B: Binding of RPARPAR (SEQ ID NO:2) phage to M21 melanoma cells transiently transfected with wild-type NRP-1 (NRP-1), triple mutant NS346A-E348A-T349A NRP-1 (Mutant NRP-1), or parental pcDNA3.1plasmid (Vector), and to non-transfected M21 cells. FIG. 18C: (c, d), Confocal immunofluorescence images of NRP-1 and RPARPAR (SEQ ID NO:2) T7 phage in PPC-1 cells incubated with phage at 37° C. for 40 minutes (c) and 3 hours (d). The phage and NRP-1 co-localize extensively, but there appears to be a progressive decrease in the overlap (arrowheads in c and d) and appearance of structures positive for the phage only (arrows, d). (e) Immunostaining and confocal imaging of RPARPAR (SEQ ID NO:2) phage and NRP-1 in M21 cells transiently transfected with NRP-1. […]

PPC-1 cells [1] = experiment: T7 phage internalization into PPC-1 (PPC1) cells at 37° C. (acid wash and titration, or anti-T7 staining and confocal imaging); assay type: cell-based, human
Experimental: (§2) FIG. 2A: Binding of T7 phage to prostate cancer cells depends on the display of a C-terminal arginine on the phage particles. PPC1 cells were incubated with T7 bacteriophage displaying derivatives of the G7 (upper graph) or RPARPAR peptide (SEQ ID NO: 2) (lower graph) at 4° C., and the bound phage was quantified by plaque assay. Binding is expressed in fold over of the non-binding G7 control phage. FIG. 2B: Phage displaying C-terminal arginine is internalized into cultured PPC1 cells (arrow, nuclear internalization; arrowhead, cytoplasmic internalization). A panel of T7 phage clones were incubated at 37° C. with PPC1 cells grown on collagen-coated coverslips, stained with anti T7 antibody and imaged by confocal microscopy.
(§3) Phage display. For in vivo phage display, mice were injected intravenously with 10^10 plaque-forming units (pfu) of T7 phage followed by perfusion of the circulatory system and determination of the bound phage in target organs by titration. For cell binding studies on cultured cells (in vitro display) and organ-derived cell suspensions (ex vivo display), the cells were incubated with 10^9 pfu of phage at 4° C., washed, lysed, and quantified by titration. Incubation at 37° C. followed by low pH wash (glycine-HCl, pH 2.5) was used to assess the amount of internalized phage.
(§4) For biopanning and phage binding studies (Hoffman, J. A. et al., 2004), cultured cells were grown to confluence and harvested with trypsin and mouse organs were dissociated using Medimachine (BD Biosciences, San Jose, CA). To measure phage binding, 10^6 cells in binding buffer (DMEM containing 1% BSA) were incubated with 10^9 pfu/ml of T7 phage for 1 hour at 4° C. The cells were washed 4 times with the binding buffer, lysed in LB bacterial growth medium containing 1% NP-40, and titrated. Phage internalization assays used the same procedure, except that the cells were incubated with the phage at 37° C., and that an acidic buffer (500 mM sodium chloride, 0.1 M glycine, 1% BSA, pH 2.5) was used instead of binding buffer in the second wash.
(§5) Centrifugation on a silicone oil cushion (1.03 g/ml) was used to separate unbound phage from cells during time course experiments. Inhibitors of phage binding and internalization (heparin, chondroitin, glycocalyx removal enzymes, endocytosis inhibitors, free peptides, quantum dots and UV-inactivated phage) were added to the cells 20 minutes prior to incubation with phage. Endocytosis inhibitors used in this study were the following: nystatin (50 μg/ml), genistein (100 μg/ml), chlorpromazine (5 μg/ml), 5-(N-ethyl-N-isopropyl) amiloride (100 μM), wortmannin (10 μM).
Immunofluorescence staining. Cultured cells (2×10^5 cells) were grown in 6-well tissue culture plates on collagen-I coated coverslips (BD Biosciences, San Jose, CA) overnight at 37° C. in 5% CO2, and incubated with 10^8 pfu of T7 phage. The cells were fixed in 4% paraformaldehyde or cold (−20° C.) methanol, and stained with antibodies. Nuclei were stained with DAPI or […]. A polyclonal rabbit anti-T7 antibody was generated in-house as described previously (Laakkonen, P. et al. 2002b), except that an additional phage purification step using […] centrifugation was included. Other primary antibodies used were rat anti-mouse CD31 monoclonal antibody (BD Biosciences), rabbit anti-NRP-1, mouse anti-human Lamp-1, mouse anti-human caveolin (Millipore, Temecula, CA), mouse anti-NRP-1 (Miltenyi Biotec Inc., Auburn, CA), mouse anti-human EEA-1 (BD Biosciences, San Jose, CA). The secondary antibodies, Alexa594 goat antibodies to mouse, rat, and rabbit immunoglobulins and Alexa488 donkey anti-rabbit antibody were from Invitrogen (Carlsbad, CA). Cells and tissue sections were examined by confocal microscopy (Fluoview 500, Olympus America Inc., Center Valley, PA).

PPC-1 cells [2] = experiment: T7 phage binding to PPC-1 (PPC1) cells at 4° C., quantified by titration/plaque assay; assay type: cell-based, human
Experimental: as §2, §3, §4, §5

wild-type NRP-1 = target: T2, wild-type NRP-1 (Homo sapiens, UniProt O14786); experiment: Phage binding and internalization in M21 melanoma cells transiently transfected with wild-type NRP-1; assay type: cell-based
T2 construct: expressed in transfected cells; host or cells: M21 melanoma cells, transient transfection with lipofectamine; pcDNA3.1(+) construct, gift of Dr. Michael Klagsbrun
Experimental: as §1

PPC-1 cells [3] = experiment: Protease treatment of phage followed by phage binding assay on PPC-1 cells at 4° C.; assay type: cell-based, human
Experimental: 5×10^8 phage particles were incubated with indicated volumes of 2.5% trypsin at 37° C. for 20 min, followed by incubation of the phage with 1×10^6 PPC1 cells at 4° C. for 3 hours. Binding is expressed as fold over non-binding G7 control phage (the internalization of which was not affected by the trypsin treatment).
10^9 pfu of RPARPARA (SEQ ID NO:3) phage was treated with indicated amounts of trypsin at 37° C. followed by phage binding assay at 4° C. The data are representative of 4 independent binding experiments.
FIGS. 20A-20C show urokinase dependent CendR peptide. FIG. 20A: The design of a uPA-activatable CendR peptide (uCendR). […] Statistical analysis was performed with ANOVA (b); n=3; error bars indicate s.d.; triple asterisk, p<0.001. Scale bars: 20 μm.
as §4
Protease treatment of phage and qdots. 10^9 phage particles or 50 μl of peptide-coated qdots phage were treated with 50 iu of uPA, 25 μg of crystalline trypsin, 50 iu of thrombin, or 25 μg of collagenase type I (all Sigma, St. Louis, Mo).

[4] = system: spontaneous pancreatic ductal adenocarcinoma; experiment: Spreading of intravenously injected phage into tumor tissue of transgenic mice bearing pancreatic ductal adenocarcinoma; assay type: in vivo, mouse; details: 15 min circulation
Text: The mice were than perfused with PBS containing 1% BSA, and the tumors were harvested. Cryosections of the tumors were stained with an anti-T7 phage antibody, an anti CD31 antibody, and DAPI. […] Staining is denoted by the bright coloring in both panels of FIG. 9.

T2 sequence (O14786 22-923): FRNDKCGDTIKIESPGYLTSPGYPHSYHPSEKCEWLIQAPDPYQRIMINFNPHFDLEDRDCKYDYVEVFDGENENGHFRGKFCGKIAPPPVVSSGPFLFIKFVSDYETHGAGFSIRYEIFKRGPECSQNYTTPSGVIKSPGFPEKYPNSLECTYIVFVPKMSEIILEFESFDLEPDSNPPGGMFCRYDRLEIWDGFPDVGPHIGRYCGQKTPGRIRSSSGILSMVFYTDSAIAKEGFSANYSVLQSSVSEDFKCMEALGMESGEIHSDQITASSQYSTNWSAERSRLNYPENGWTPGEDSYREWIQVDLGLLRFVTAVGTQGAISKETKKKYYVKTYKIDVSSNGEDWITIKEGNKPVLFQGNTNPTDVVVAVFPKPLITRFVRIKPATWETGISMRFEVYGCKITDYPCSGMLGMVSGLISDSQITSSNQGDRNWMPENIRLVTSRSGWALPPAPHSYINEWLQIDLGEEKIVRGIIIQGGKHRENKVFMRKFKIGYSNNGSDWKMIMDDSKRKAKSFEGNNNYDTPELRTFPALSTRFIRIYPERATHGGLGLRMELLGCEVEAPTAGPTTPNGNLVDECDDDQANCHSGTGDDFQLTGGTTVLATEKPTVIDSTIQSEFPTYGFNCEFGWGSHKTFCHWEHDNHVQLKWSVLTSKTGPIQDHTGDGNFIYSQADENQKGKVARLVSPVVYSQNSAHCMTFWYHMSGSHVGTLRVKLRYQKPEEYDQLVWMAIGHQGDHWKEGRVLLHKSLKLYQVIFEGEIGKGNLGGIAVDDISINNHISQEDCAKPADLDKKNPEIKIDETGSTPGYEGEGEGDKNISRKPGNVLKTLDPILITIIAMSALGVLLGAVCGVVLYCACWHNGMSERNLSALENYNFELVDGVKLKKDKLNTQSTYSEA
T1 sequence (O14786 22-923): as above

## CRGDKGPDC [iRGD peptide]
cells
  Internalization into cells relative to other RGD peptides: more strongly internalized into cells than any other RGD peptide
Pancreatic tumors
  Tumor homing: strong tumor homing; also recorded: homes to pancreatic tumors

## RPARPAR (REAGENT) [RPARPAR peptide]
NRP-1
  Protein released from immobilized peptide by elution with free RPARPAR peptide: NRP-1
PPC-1 cells [1]
  Effect of unlabelled peptide in binding buffer on binding and internalization of VEGF-C7, enhanced tuftsin and A7R phage: reduced

## RPARPARA [RPARPARA phage]
PPC-1 cells [2]; 4° C.
  Phage binding to PPC-1 cells (in words): abolished the binding
PPC-1 cells [2]; PPC1 cells, without trypsin treatment
  Cell binding, fold over G7-displaying phage: 2.8 fold
wild-type NRP-1
  Phage binding and internalization by M21 cells with forced expression of NRP-1: is not internalized
PPC-1 cells [3]; phage incubated with trypsin at 37° C., binding at 4° C.
  Increase of phage binding to cells by trypsin treatment of the phage: more than 100 fold
PPC-1 cells [3]; trypsin
  Effect of trypsin treatment of phage on binding (in words): restored

## CRGDKGPDC [iRGD phage]
PPC-1 cells [1]; 37° C.
  Phage internalization into PPC-1 cells (in words): internalizes extensively into the tumor cells
[4]
  Distribution of phage in pancreatic tumor tissue: extensively taken up by the tumor cells forming the pancreatic tumor ducts
